# Measurements from US9409952B2, “Peptide-compound cyclization method” (Chugai Seiyaku Kabushiki Kaisha, priority 2011, dated 2016).
# Starred links: 1 amine or outer side, 2 acyl side, 3 side chain; linkers in the order of their positions; H or OH if unused. Positions of bridges follow the written chain, without caps; N, C: chain ends. Non-standard residues stand in square brackets, D forms with d. Residues, ends and D or L forms follow the SMILES beside them. *: point of attachment. Phe(4-(CH2)5CO) = O=C([C@H](Cc1ccc(CCCCCC(=O)[*:3])cc1)N[*:1])[*:2]; Phe(3-(CH2)4CO) = O=C([C@H](Cc1cccc(CCCCC(=O)[*:3])c1)N[*:1])[*:2]; NEtPhe = CCN[C@@H](Cc1ccccc1)C(=O)O; NMeF = CN[C@@H](Cc1ccccc1)C(=O)O; NMeI = CC[C@H](C)[C@H](NC)C(=O)O; NMeL = CN[C@@H](CC(C)C)C(=O)O; NMeV = CN[C@H](C(=O)O)C(C)C; NMeA = CN[C@@H](C)C(=O)O; Piperidide = C1CCN(*)CC1; dNMeA = CN[C@H](C)C(=O)O; NPrGly = CCCNCC(=O)O; Sar = CNCC(=O)O; tBu = CC(C)(C)*
# Assay: Metabolic stability in human hepatic microsome
# Format: in vitro ADME
# Settings: not given
row,SMILES,Hepatic microsome CLhint (Human) In the absence of NADPH [ul/min/mg Protein]
1,"CC[C@H](C)[C@H]1C(=O)N[C@H](C(=O)N2CCCCC2)CC(=O)N[C@@H](C)C(=O)N(C)[C@@H](C)C(=O)N(C)[C@@H](Cc2ccccc2)C(=O)N(C)[C@@H](CC(C)C)C(=O)N[C@@H]([C@@H](C)O)C(=O)N(C)CC(=O)N(C)[C@@H](CC(C)C)C(=O)N[C@@H](COC(C)(C)C)C(=O)N1C [Compound P-125, Ala-MeAla-MePhe-MeLeu-Thr-MeGly-MeLeu-Ser(tBu)-MeIle-Asp-piperidine] (A[NMeA][NMeF][NMeL]T[Sar][NMeL]S(tBu)[NMeI]D-Piperidide; lactam N-10)",1
2,"CC(C)C[C@H]1C(=O)N[C@@H](COC(C)(C)C)C(=O)N[C@H](C(=O)N2CCCCC2)CC(=O)N[C@@H](C)C(=O)N(C)[C@@H](C)C(=O)N(C)[C@@H](Cc2ccccc2)C(=O)N(C)[C@@H](CC(C)C)C(=O)N[C@@H]([C@@H](C)O)C(=O)N(C)CC(=O)N1C [Compound P-119, Ala-MeAla-MePhe-MeLeu-Thr-MeGly-MeLeu-Ser(tBu)-Asp-piperidine] (A[NMeA][NMeF][NMeL]T[Sar][NMeL]S(tBu)D-Piperidide; lactam N-9)",5

# Same assay, conditions: Table 10, with NADPH
row,SMILES,Hepatic microsome CLhint (Human) In the presence of NADPH [ul/min/mg Protein]
1,"CC[C@H](C)[C@H]1C(=O)N[C@H](C(=O)N2CCCCC2)CC(=O)N[C@@H](C)C(=O)N(C)[C@@H](C)C(=O)N(C)[C@@H](Cc2ccccc2)C(=O)N(C)[C@@H](CC(C)C)C(=O)N[C@@H]([C@@H](C)O)C(=O)N(C)CC(=O)N(C)[C@@H](CC(C)C)C(=O)N[C@@H](COC(C)(C)C)C(=O)N1C [Compound P-125, Ala-MeAla-MePhe-MeLeu-Thr-MeGly-MeLeu-Ser(tBu)-MeIle-Asp-piperidine] (A[NMeA][NMeF][NMeL]T[Sar][NMeL]S(tBu)[NMeI]D-Piperidide; lactam N-10)",35

# Same assay, conditions: human, microsomes, CL NADPH(+)
row,SMILES,microsomal CLint [µL/min/mg]
1,CC[C@H](C)[C@@H]1NC(=O)[C@H](Cc2ccccc2)NC(=O)[C@@H]2CCCN2C(=O)[C@H](CC(C)C)N(C)C(=O)[C@H](Cc2ccccc2)NC(=O)[C@H](CC(C)C)NC(=O)[C@H]([C@@H](C)O)NC(=O)[C@H](C)N(C)C(=O)[C@H](C(C)C)NC(=O)[C@H](C)NC(=O)C[C@@H](C(=O)N2CCCCC2)NC(=O)[C@H](CC(C)C)NC(=O)CN(C)C1=O [DP-21] (AV[NMeA]TLF[NMeL]PFI[Sar]LD-Piperidide; lactam N-13),25

# Same assay, conditions: human, microsomes, pH 7.4, CL NADPH(+)
row,SMILES,microsomal CLint at 1 uM [µL/min/mg]
1,CCN1C(=O)[C@H](Cc2ccccc2)N(C)C(=O)CN(C)C(=O)[C@H]([C@@H](C)O)NC(=O)[C@H](C)N(C)C(=O)C[C@@H](C(=O)N2CCCCC2)NC(=O)[C@H](C(C)C)N(C)C(=O)[C@H](C)NC(=O)[C@H](CC(C)C)N(C)C(=O)[C@@H]2CCCN2C(=O)[C@H](CC(C)C)N(C)C(=O)[C@@H]1Cc1ccccc1 [DP-632] ([NMeA]T[Sar][NMeF][NEtPhe][NMeL]P[NMeL]A[NMeV]D-Piperidide; lactam N-11),41
2,CC[C@H](C)[C@H]1C(=O)N(C)[C@@H](C)C(=O)N[C@H](C(=O)N2CCCCC2)CC(=O)N[C@@H](C)C(=O)N[C@@H]([C@@H](C)O)C(=O)N(C)[C@@H](Cc2ccccc2)C(=O)N(C)[C@@H](CC(C)C)C(=O)N[C@@H](C(C)C)C(=O)N2CCC[C@H]2C(=O)N(C)[C@@H](Cc2ccccc2)C(=O)N[C@@H](CC(C)C)C(=O)N(C)CC(=O)N1C [DP-11] (AT[NMeF][NMeL]VP[NMeF]L[Sar][NMeI][NMeA]D-Piperidide; lactam N-12),67
3,CC[C@H](C)[C@@H]1NC(=O)[C@H](C)NC(=O)C[C@@H](C(=O)N2CCCCC2)NC(=O)[C@H](CC(C)C)N(C)C(=O)[C@H](CC(C)C)N(C)C(=O)[C@H](C(C)C)NC(=O)[C@H](C)NC(=O)[C@H](Cc2ccccc2)N(C)C(=O)[C@H](Cc2ccccc2)N(C)C(=O)[C@H]([C@@H](C)O)NC(=O)[C@H](CC(C)C)N(C)C(=O)[C@@H]2CCCN2C1=O [DP-10] (AIP[NMeL]T[NMeF][NMeF]AV[NMeL][NMeL]D-Piperidide; lactam N-12),14

# Same assay, conditions: human, microsomes, pH 7.4, Hepatic microsome CLhint (Human) In the presence of NADPH
row,SMILES,microsomal CLint at 1 uM [µL/min/mg]
1,"CC(C)C[C@H]1C(=O)N[C@@H](COC(C)(C)C)C(=O)N[C@H](C(=O)N2CCCCC2)CC(=O)N[C@@H](C)C(=O)N(C)[C@@H](C)C(=O)N(C)[C@@H](Cc2ccccc2)C(=O)N(C)[C@@H](CC(C)C)C(=O)N[C@@H]([C@@H](C)O)C(=O)N(C)CC(=O)N1C [Compound P-119, Ala-MeAla-MePhe-MeLeu-Thr-MeGly-MeLeu-Ser(tBu)-Asp-piperidine] (A[NMeA][NMeF][NMeL]T[Sar][NMeL]S(tBu)D-Piperidide; lactam N-9)",56

# Same assay, conditions: microsomes, pH 7.4; human hepatic microsome, NADPH(+); read-out: CL NADPH(+)
row,SMILES,microsomal CLint at 1 uM [µL/min/mg]
1,CC(C)C[C@H]1C(=O)N(C)[C@@H](Cc2ccccc2)C(=O)N[C@@H](C)C(=O)N2CCC[C@H]2C(=O)N(C)[C@@H](CC(C)C)C(=O)N(C)[C@@H](Cc2ccccc2)C(=O)N(C)[C@@H](C(C)C)C(=O)N[C@H](C(=O)N2CCCCC2)CC(=O)N[C@H](C)C(=O)N[C@@H]([C@@H](C)O)C(=O)N(C)CC(=O)N1C [DP-141] ([dA]T[Sar][NMeL][NMeF]AP[NMeL][NMeF][NMeV]D-Piperidide; lactam N-11),77
2,C=C1CCC(=O)N[C@@H](CC(C)C)C(=O)N(C)[C@@H](CC(C)C)C(=O)N(C)[C@@H](Cc2ccccc2)C(=O)N[C@@H](C)C(=O)N(C)[C@@H](Cc2ccccc2)C(=O)N(C)[C@@H]([C@@H](C)CC)C(=O)N[C@@H]([C@@H](C)O)C(=O)N(C)CC(=O)N(C)[C@@H](CC(C)C)C(=O)N[C@H](C(=O)N2CCCCC2)Cc2cccc1c2 [DP-855],210
3,CC[C@H](C)[C@@H]1NC(=O)[C@H](C(C)C)N(C)C(=O)[C@H](C)N(C)C(=O)C[C@@H](C(=O)N2CCCCC2)NC(=O)[C@H](CC(C)C)NC(=O)[C@H](Cc2ccccc2)N(C)C(=O)[C@H](CC(C)C)N(C)C(=O)[C@H](CC(C)C)NC(=O)[C@H]([C@@H](C)O)NC(=O)[C@H](Cc2ccccc2)NC1=O [DP-488] ([NMeA][NMeV]IFTL[NMeL][NMeF]LD-Piperidide; lactam N-10),261
4,C=C1CCC(=O)N[C@@H](CC(C)C)C(=O)N[C@@H](Cc2ccccc2)C(=O)N[C@@H]([C@@H](C)O)C(=O)N[C@@H](CC(C)C)C(=O)N(C)[C@@H](C)C(=O)N[C@@H](Cc2ccccc2)C(=O)NCC(=O)N[C@@H](C(C)C)C(=O)N[C@@H](CC(C)C)C(=O)N[C@@H](C)C(=O)N(C)[C@@H](CC(C)C)C(=O)N[C@H](C(=O)N2CCCCC2)Cc2ccc1cc2 [DP-898],21
5,CCCN1CC(=O)N[C@@H](COC(C)(C)C)C(=O)N(C)CC(=O)N(C)[C@@H](CC(C)C)C(=O)N[C@@H]([C@@H](C)O)C(=O)N(C)[C@@H](Cc2ccccc2)C(=O)N(C)[C@@H](CC(C)C)C(=O)N(C)[C@@H]([C@@H](C)CC)C(=O)N(C)[C@@H](C)C(=O)N[C@H](C(=O)N2CCCCC2)CC1=O [DP-634] ([NPrGly]S(tBu)[Sar][NMeL]T[NMeF][NMeL][NMeI][NMeA]D-Piperidide; lactam N-10),32
6,CC[C@H](C)[C@@H]1NC(=O)[C@H](C)N(C)C(=O)CN(C)C(=O)C[C@@H](C(=O)N2CCCCC2)NC(=O)[C@H](CC(C)C)N(C)C(=O)[C@H](C)N(C)C(=O)[C@H](Cc2ccccc2)N(C)C(=O)[C@H]([C@@H](C)O)NC(=O)[C@H](Cc2ccccc2)N(C)C(=O)[C@H](CC(C)C)N(C)C1=O [DP-519] ([Sar][NMeA]I[NMeL][NMeF]T[NMeF][NMeA][NMeL]D-Piperidide; lactam N-10),157
7,CCCN1CC(=O)N(C)[C@@H](CC(C)C)C(=O)N[C@H](C(=O)N2CCCCC2)CC(=O)N(C)[C@H](C)C(=O)N[C@@H](CC(C)C)C(=O)N(C)[C@@H](CC(C)C)C(=O)N(C)[C@@H](Cc2ccccc2)C(=O)N[C@@H](C)C(=O)N(C)[C@@H](Cc2ccccc2)C(=O)N(C)[C@@H]([C@@H](C)CC)C(=O)N[C@@H]([C@@H](C)O)C1=O [DP-635] ([dNMeA]L[NMeL][NMeF]A[NMeF][NMeI]T[NPrGly][NMeL]D-Piperidide; lactam N-11),112
8,CC[C@H](C)[C@@H]1NC(=O)[C@H](C)NC(=O)C[C@@H](C(=O)N2CCCCC2)NC(=O)[C@H](Cc2ccccc2)NC(=O)[C@H](C)NC(=O)[C@H]([C@@H](C)O)NC(=O)[C@H](Cc2ccccc2)NC(=O)[C@H](CC(C)C)N(C)C(=O)[C@H](CC(C)C)NC(=O)[C@H](Cc2ccccc2)NC(=O)[C@H](CC(C)C)NC1=O [DP-320] (AILFL[NMeL]FTAFD-Piperidide; lactam N-11),36
9,CC[C@H](C)[C@@H]1NC(=O)[C@H](C)N(C)C(=O)CCCCCc2ccc(cc2)C[C@@H](C(=O)N2CCCCC2)NC(=O)[C@H](CC(C)C)N(C)C(=O)[C@H](CC(C)C)N(C)C(=O)[C@H](C)N(C)C(=O)[C@H]([C@@H](C)O)NC(=O)[C@H](Cc2ccccc2)N(C)C(=O)[C@H](Cc2ccccc2)N(C)C1=O [DP-841] ([NMeA]I[NMeF][NMeF]T[NMeA][NMeL][NMeL][Phe(4-(CH2)5CO)]-Piperidide; lactam N-9),386
10,CC[C@H](C)[C@@H]1NC(=O)[C@H](CC(C)C)N(C)C(=O)CN(C)C(=O)[C@H](Cc2ccccc2)NC(=O)[C@H](C(C)C)N(C)C(=O)[C@H](C)N(C)C(=O)[C@H]([C@@H](C)O)NC(=O)[C@H](C)N(C)C(=O)C[C@@H](C(=O)N2CCCCC2)NC(=O)[C@H](C)NC1=O [DP-675] ([NMeA]T[NMeA][NMeV]F[Sar][NMeL]IAD-Piperidide; lactam N-10),22
11,CC(C)C[C@H]1C(=O)N[C@@H](COC(C)(C)C)C(=O)N(C)[C@@H](CC(C)C)C(=O)N[C@H](C(=O)N2CCCCC2)Cc2ccc(cc2)CCCCCC(=O)N(C)[C@@H](C)C(=O)N(C)[C@@H](Cc2ccccc2)C(=O)N(C)[C@@H](CC(C)C)C(=O)N[C@@H]([C@@H](C)O)C(=O)N(C)CC(=O)N1C [DP-837] ([NMeA][NMeF][NMeL]T[Sar][NMeL]S(tBu)[NMeL][Phe(4-(CH2)5CO)]-Piperidide; lactam N-9),284
12,CC[C@H](C)[C@H](NC(=O)[C@H](CC(C)C)N(C)C(=O)[C@H](Cc1ccccc1)N(C)C(=O)[C@@H]1CC(=O)N(C)[C@@H](C)C(=O)N[C@@H](C(C)C)C(=O)N[C@@H](C)C(=O)N[C@@H](CC(C)C)C(=O)N(C)[C@@H](Cc2ccccc2)C(=O)N[C@@H](CC(C)C)C(=O)N[C@@H]([C@@H](C)O)C(=O)N1)C(=O)N1CCCCC1 [DP-932] ([NMeA]VAL[NMeF]LTD[NMeF][NMeL]I-Piperidide; lactam N-8),108
13,CC[C@H](C)[C@@H]1NC(=O)[C@H](C)N(C)C(=O)CCCCc2cccc(c2)C[C@@H](C(=O)N2CCCCC2)NC(=O)[C@H](CC(C)C)N(C)C(=O)[C@H](C)N(C)C(=O)[C@H]([C@@H](C)O)NC(=O)[C@H](Cc2ccccc2)N(C)C(=O)[C@H](Cc2ccccc2)N(C)C(=O)[C@H](CC(C)C)N(C)C1=O [DP-849] ([NMeA]I[NMeL][NMeF][NMeF]T[NMeA][NMeL][Phe(3-(CH2)4CO)]-Piperidide; lactam N-9),202
